Reference: patent US6525045B2, “Positive allosteric AMPA receptor modulators” (Boehringer Ingelheim Pharma KG, priority 2000, dated 2003)

Columns and labels:
AMPA receptors = test: Electrophysiological measurement of intensification of the agonist-induced current on cells expressing functional AMPA receptors; type: cell-based; parameters: key: + good; ++ very good activity; settings: concentrations between 0.3 μmol and 300 μmol
Method: Particular mention should be made of those applications in which the positive modulation of AMPA receptors plays a part. The effect of the compounds according to the invention as AMPA receptor modulators was measured electrophysiologically on cells which express functional AMPA receptors. Investigations were carried out to see whether the test substances have a positive allosteric influence on the agonist-induced current.
The test was carried out at concentrations of between 0.3 μmol and 300 μmol.

| melting point [°C] | Molecule | Effectiveness: Intensification of the agonist-induced current (AMPA receptors) |
| --- | --- | --- |
| 203 | CN1Cc2c(Br)ccc3scc(c23)S1(=O)=O [Example 11, 6-bromo-4-methyl-4,5-dihydro-1,3-dithia-4-aza-acenaphthylene-3,3-dioxide] |  |
|  | CN1Cc2cccc3scc(c23)S1(=O)=O [Example 1, 4-methyl-4,5-dihydro-1,3-dithia-4-aza-acenaphthylene 3,3-dioxide] | ++ |
| 238 | CN1Cc2c(C#N)ccc3scc(c23)S1(=O)=O [Example 16, 4-methyl-3,3-dioxo-4,5-dihydro-3H-1,3-dithia-4-aza-acenaphthylene-6-carbonitrile] |  |
|  | CCN1Cc2cccc3scc(c23)S1(=O)=O [Example 2, 4-ethyl-4.5-dihydro-1,3-dithia-4-aza-acenaphthylene 3,3-dioxide] | + |
|  | CN1Cc2c(F)ccc3scc(c23)S1(=O)=O [Example 4, 6-fluoro-4-methyl-4,5-dihydro-1,3-dithia-4-aza-acenaphthylene 3,3-dioxide] | ++ |
|  | 6-chloro-4-methyl-4,5-dihydro-1.3-dithia-4-aza-acenaphthylene 3.3-dioxide [Example 5] | + |
|  | CN1Cc2ccc(Cl)c3scc(c23)S1(=O)=O [Example 3, 8-chloro-4-methyl-4,5-dihydro-1,3-dithia-4-aza-acenaphthylene 3,3-dioxide] | + |
